The structures appear in SMILES notation. Where two headings read alike, the source gives them in different places. A value given as a limit tells only on which side of the number the result lay.

Data on 28 compounds can be found in US20090069336A1, “PYRIMIDOTHIOPHENE COMPOUNDS” (VERNALIS (CAMBRIDGE) LIMITED., priority 2004, published 2009).

The assay has as its target T1, human full-length HSP90 (Homo sapiens, UniProt P08238).
T1 construct: E. coli expressed human full-length HSP90 protein, purified >95%; made in house; host or cells: E. coli
Put plainly: Fluorescence polarization assay (competitive displacement of probe RBT0051001-FAM from HSP90). It counts as binding. The text has this: Fluorescence Polarization Assay
Fluorescence polarization {also known as fluorescence anisotropy} measures the rotation of a fluorescing species in solution, where the larger molecule the more polarized the fluorescence emission. When the fluorophore is excited with polarized light, the emitted light is also polarized. The molecular size is proportional to the polarization of the fluorescence emission.
The fluoroscein-labelled probe —RBT0051001-FAM—
binds to HSP90 {full-length human, full-length yeast or N-terminal domain HSP90} and the anisotropy {rotation of the probe:protein complex} is measured.
Test compound is added to the assay plate, left to equilibrate and the anisotropy measured again. Any change in anisotropy is due to competitive binding of compound to HSP90, thereby releasing probe.
Chemicals are of the highest purity commercially available and all aqueous solutions are made up in AR water. • 1) Costar 96-well black assay plate #3915 • 2) Assay buffer of (a) 100 mM Tris pH7.4; (b) 20 mM KCl; (c) 6 mM MgCl2. Stored at room temperature. • 3) BSA (bovine serum albumen) 10 mg/ml (New England Biolabs # B9001S) • 4) 20 mM probe in 100% DMSO stock concentration. Stored in the dark at RT. Working concentration is 200 nM diluted in AR water and stored at 4° C. Final concentration in assay 80 nM. • 5) E. coli expressed human full-length HSP90 protein, purified >95% (see, e.g., Panaretou et al., 1998) and stored in 50 μL aliquots at −80° C.
• 1) Add 100 μl 1× buffer to wells 11A and 12A (=FP BLNK) • 2) Prepare assay mix—all reagents are kept on ice with a lid on the bucket as the probe is light-sensitive.
• 3) Aliquot 100 μl assay mix to all other wells • 4) Seal plate and leave in dark at room temp for 20 minutes to equilibrate Compound Dilution Plate—1×3 dilution series • 1) In a clear 96-well v-bottom plate-{# VWR 007/008/257} add 10 μl 100% DMSO to wells B1 to H11 • 2) To wells A1 to A11 add 17.5 μl 100% DMSO • 3) Add 2.5 μl cpd to A1. This gives 2.5 mM {50×} stock cpd-assuming cpds 20 mM. • 4) Repeat for wells A2 to A10. Control in columns 11 and 12. • 5) Transfer 5 μl from row A to row B—not column 12. Mix well. • 6) Transfer 5 μl from row B to row C. […] In column 11 {provides standard curve} only add compound B11-H11. Add 2 μl of 100 mM standard cpd to wells B12-H12 {is positive control} • 13) The Z′ factor is calculated from zero controls and positive wells. It typically gives a value of 0.7-0.9.
The compounds tested in the above assay were assigned to one of two activity ranges, namely A=<10 μM; B=>10 μM, and those assignments are reported above.

The mark [1] stands for this setting: activity range stated in each example, read-out: activity in the fluorescence polarization assay.
The mark [2] stands for this setting: Table 1, read-out: Hsp90 FP IC50.

T1 sequence (P08238 whole entry): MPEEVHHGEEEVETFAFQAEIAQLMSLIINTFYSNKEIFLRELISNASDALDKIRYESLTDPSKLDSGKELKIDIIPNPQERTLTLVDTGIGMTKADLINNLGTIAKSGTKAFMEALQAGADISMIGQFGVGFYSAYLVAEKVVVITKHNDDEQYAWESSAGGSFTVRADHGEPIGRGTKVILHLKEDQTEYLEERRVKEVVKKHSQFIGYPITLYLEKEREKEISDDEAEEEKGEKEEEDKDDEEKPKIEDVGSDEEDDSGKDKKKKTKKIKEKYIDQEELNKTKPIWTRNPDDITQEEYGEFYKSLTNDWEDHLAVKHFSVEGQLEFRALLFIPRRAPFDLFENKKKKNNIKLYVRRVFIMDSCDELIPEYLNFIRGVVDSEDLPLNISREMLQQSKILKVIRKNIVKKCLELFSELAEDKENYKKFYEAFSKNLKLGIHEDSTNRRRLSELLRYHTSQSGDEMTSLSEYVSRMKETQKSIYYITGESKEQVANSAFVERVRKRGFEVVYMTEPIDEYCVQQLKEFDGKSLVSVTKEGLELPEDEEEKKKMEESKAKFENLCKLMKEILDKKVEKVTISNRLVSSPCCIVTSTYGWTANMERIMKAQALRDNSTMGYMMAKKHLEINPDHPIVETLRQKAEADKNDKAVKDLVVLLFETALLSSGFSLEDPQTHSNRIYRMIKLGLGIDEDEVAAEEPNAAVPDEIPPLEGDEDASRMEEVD

Regarding `N#Cc1cc2c(-c3cc(OCc4ccccc4)c(Cl)cc3Cl)nc(N)nc2s1` [Example 28, 2-amino-4-(5-benzyloxy-2,4-dichloro-phenyl)-thieno[2,3-d]pyrimidine-6-carbonitrile], the IC50 under setting [1] was less than 10 µM. As to `CCN(CC)CCOc1cc(-c2nc(N)nc3sc(/C=C/C(C)=O)cc23)c(Cl)cc1Cl` [Example 34, 4-{2-Amino-4-[2,4-dicholoro-5-(2-diethylamino-ethoxy)-phenyl]thieno[2,3-d]pyrimidine-6-yl}-but-3-en-2-one], the IC50 under setting [1] is less than 10 µM. Same read-out and setting: as for `CCN(CC)CCOc1cc(-c2nc(N)nc3sc(-c4nn[nH]n4)cc23)c(Cl)cc1Cl` [Example 40, 4-[2,4-Dichloro-5-(2-diethylamino-ethoxy)-phenyl]-6-(2H-tetrazol-5-yl)-thieno[2,3-d]pyrimidin-2-ylamine], the figure is less than 10 µM; as for `CCN(CC)CCOc1cc(-c2nc(N)nc3sc(C(=O)O)cc23)c(Cl)cc1Cl` [Example 36, 2-Amino-4-[2,4-dichloro-5-(2-diethylamino-ethoxy)-phenyl]-thieno[2,3-d]pyrimidine-6-carboxylic acid], less than 10 µM; as for `Cc1ccc(-c2nc(N)nc3sc(C4=NCCN4)cc23)c(C)c1` [Example 11, 6-(4,5-Dihydro-1H-imidazol-2-yl)-4-(2,4-dimethyl-phenyl)-thieno[2,3-d]pyrimidin-2-ylamine], less than 10 µM. Still for that read-out and setting: as for `Nc1nc(-c2ccc(Cl)cc2Cl)c2cc(CO)sc2n1` [Example 6, [2-Amino-4-(2,4-dichloro-phenyl)-thieno[2,3-d]pyrimidin-6-yl]methanol], the figure is less than 10 µM.

For `Nc1nc(-c2ccc(Cl)cc2Cl)c2cc(C(=O)O)sc2n1` [Example 1, 2-Amino-4-(2,4-dichloro-phenyl)-thieno[2,3-d]pyrimidine-6-carboxylic acid], under setting [1], the IC50 was less than 10 µM.

Take `CC(=O)Nc1nc(C)c(-c2cc3c(-c4ccc(Cl)cc4Cl)nc(N)nc3s2)[nH]1` [Example 22, N-{5-[2-Amino-4-(2,4-dichloro-phenyl)-thieno[2,3-d]pyrimidin-6-yl]-4-methyl-1H-imidazol-2-yl}-acetamide]: under setting [1], the IC50 is less than 10 µM. Take `Nc1nc(-c2cc(OCc3ccccc3)c(Cl)cc2Cl)c2cc(C(=O)O)sc2n1` [Example 37, 2-Amino-4-[5-benzyloxy-2,4-dichloro-phenyl]-thieno[2,3-d]pyrimidine-6-carboxylic acid]: the IC50 under setting [1] is less than 10 µM.

Consider `CCN(CC)CCOc1cc(-c2nc(N)nc3sc(/C(N)=N/O)cc23)c(Cl)cc1Cl` [Example 30, 2-Amino-4-[2,4-dichloro-5-(2-diethylamino-ethoxy)-phenyl]-N-hydroxy-thieno[2,3-d]pyrimidine-6-carboxamidine], for which the IC50 under setting [1] was less than 10 µM.

Regarding `Nc1nc(-c2ccc(Cl)cc2Cl)c2cc(C(O)(c3ccccc3)c3ccccc3)sc2n1` [Example 5, [2-Amino-4-(2,4-dichloro-phenyl)-thieno[2,3-d]pyrimidin-6-yl]-diphenyl-methanol], the IC50 under setting [1] was greater than 10 µM.

For the compound `CCN(CC)CCOc1cc(-c2nc(N)nc3sc(CO)cc23)c(Cl)cc1Cl` [Example 32, {2-amino-4-[2,4-dichloro-5-(2-diethylamino-ethoxy)-phenyl]-thieno[2,3-d]pyrimidin-6-yl}-methanol], the IC50 under setting [1] is less than 10 µM.

Regarding `Nc1nc(-c2ccc(Cl)cc2Cl)c2cc(-c3n[nH]c(N)n3)sc2n1` [Example 38, 6-(5-Amino-1H-[1,2,4]triazol-3-yl)-4-(2,4-dichloro-phenyl)-thieno[2,3-d]pyrimidin-2-ylamine], the IC50 under setting [1] was less than 10 µM. Still for that read-out and setting: as for `Nc1nc(-c2ccc(Cl)cc2Cl)c2cc(-c3cnc[nH]3)sc2n1` [Example 24, 4-(2,4-Dichloro-phenyl)-6-(3H-imidazol-4-yl)-thieno[2,3-d]pyrimidin-2-ylamine], the figure is less than 10 µM; as for `Nc1nc(-c2ccc(Cl)cc2Cl)c2cc(C(=O)c3ccccc3)sc2n1` [Example 9, [2-Amino-4-(2,4-dichloro-phenyl)-thieno[2,3-d]pyrimidine-6-yl]-phenyl-methanone], less than 10 µM. Same read-out and setting: for `NCc1cc2c(-c3ccc(Cl)cc3Cl)nc(N)nc2s1` [Example 25, 6-Aminomethyl-4-(2,4-dichloro-phenyl)-thieno[2,3-d]pyrimidin-2-ylamine] the value was less than 10 µM. On to `CNNC(=O)c1cc2c(-c3ccc(Cl)cc3Cl)nc(N)nc2s1` [Example 16], for which, under setting [2], the IC50 is less than 10 µM. Take `Nc1nc(-c2ccc(Cl)cc2Cl)c2cc(-c3ccc[nH]3)sc2n1` [Example 21, 4-(2,4-Dichloro-phenyl)-6-(1H-pyrrol-2-yl)-thieno[2,3-d]pyrimidin-2-ylamine]: the IC50 under setting [1] is less than 10 µM. Same read-out and setting: for `Cc1ccc(-c2nc(N)nc3sc(C(=O)O)cc23)c(C)c1` [Example 2, 2-Amino-4-(2,4-dimethyl-phenyl)-thieno[2,3-d]pyrimidine-6-carboxylic acid] the value was greater than 10 µM. `CONC(=O)c1cc2c(-c3ccc(Cl)cc3Cl)nc(N)nc2s1` [Example 14]: under setting [2], the IC50 was less than 10 µM. `CN1CCN(NC(=O)c2cc3c(-c4ccc(Cl)cc4Cl)nc(N)nc3s2)CC1` [Example 12, 2-Amino-4-(2,4-dichloro-phenyl)-thieno[2,3-d]pyrimidine-6-carboxylic acid (4-methyl-piperazin-1-yl) amide]: under setting [1], the IC50 is less than 10 µM. On the same count and under the same terms, as for `CCN(CC)CCOc1cc(-c2nc(N)nc3sc(-c4n[nH]c(N)n4)cc23)c(Cl)cc1Cl` [Example 39, 6-(5-Amino-1H-[1,2,4]triazol-3-yl)-4-[2,4-dichloro-5-(2-diethylamino-ethoxy)-phenyl]-thieno[2,3-d]pyrimidin-2-ylamine], the figure is less than 10 µM.

Regarding `CCOC(=O)/C=C/c1cc2c(-c3cc(OCCN(CC)CC)c(Cl)cc3Cl)nc(N)nc2s1` [Example 41, 3-{2-Amino-4-[2,4-Dichloro-5-(2-diethylamino-ethoxy)-phenyl]-thieno[2,3-d]pyrimidin-6-yl}-acrylic acid ethyl ester], the IC50 under setting [1] was less than 10 µM. The same measure, in the same setting: for `CCCNCc1cc2c(-c3ccc(C)cc3C)nc(N)nc2s1` [Example 18, 4-(2,4-dimethyl-phenyl)-6-propylaminomethyl-thieno[2,3-d]pyrimidin-2-ylamine] the value was less than 10 µM.

For `CCN(CC)CCOc1cc(-c2nc(N)nc3sc(C=O)cc23)c(Cl)cc1Cl` [Example 33, 2-amino-4-[2,4-dicholoro-5-(2-diethylamino-ethoxy)-phenyl]thieno[2,3-d]pyrimidine-6-carbaldehyde], the IC50 under setting [1] is less than 10 µM. Still for that read-out and setting: as for `CCN(CC)CCOc1cc(-c2nc(N)nc3sc(C4=NCCN4)cc23)c(Cl)cc1Cl` [Example 31, 4-[2,4-dichloro-5-(2-diethylamino-ethoxy)-phenyl]-6-(4,5-dihydro-1H-imidazol-2-yl)-thieno[2,3-d]pyrimidin-2-ylamine], the figure is less than 10 µM; as for `Nc1nc(-c2ccc(Cl)cc2Cl)c2cc(C(=O)Nn3cnnc3)sc2n1` [Example 13, 2-Amino-4-(2,4-dichloro-phenyl)-thieno[2,3-d]pyrimidine-6-carboxylic acid [1,2,4]triazol-4-ylamide], less than 10 µM; as for `CCC(O)(CC)c1cc2c(-c3ccc(Cl)cc3Cl)nc(N)nc2s1` [Example 4, 3-[2-Amino-4-(2,4-dichloro-phenyl)-thieno[2,3-d]pyrimidin-6-yl]-pentan-3-ol], less than 10 µM.
